Data from the supplement of paper PMC10307832.

Key:
Assay in all cases: relative viability (nuclei count vs DMSO), 5 days (fraction); higher = more cells survive
201T = test system: 201T
Summary of the method: (§1)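 One day after seeding in 1536-well plates, lung cancer cell lines were dosed by pin tool. Dosing was either single-drug or a fixed anchor-drug dose plus five library-drug doses (not always all listed) in √10 steps. After 5 days, nuclei were stained in one fix-and-stain step and counted on 4× images, and relative viability is the nuclei count of treated wells over that of vehicle wells, given as the median of duplicate plates.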

BEN = test system: BEN
Summary of the method: as §1

CAL-12T = test system: CAL-12T
Summary of the method: as §1

HCC-827 = test system: HCC-827
Summary of the method: as §1

LCLC-103H = test system: LCLC-103H
Summary of the method: as §1

LCLC-97TM1 = test system: LCLC-97TM1
Summary of the method: as §1

LXF-289 = test system: LXF-289
Summary of the method: as §1

NCI-H1395 = test system: NCI-H1395
Summary of the method: as §1

NCI-H1437 = test system: NCI-H1437
Summary of the method: as §1

NCI-H1650 = test system: NCI-H1650
Summary of the method: as §1

NCI-H1792 = test system: NCI-H1792
Summary of the method: as §1

NCI-H1793 = test system: NCI-H1793
Summary of the method: as §1

NCI-H1944 = test system: NCI-H1944
Summary of the method: as §1

NCI-H2087 = test system: NCI-H2087
Summary of the method: as §1

NCI-H2228 = test system: NCI-H2228
Summary of the method: as §1

NCI-H2405 = test system: NCI-H2405
Summary of the method: as §1

NCI-H3122 = test system: NCI-H3122
Summary of the method: as §1

NCI-H322M = test system: NCI-H322M
Summary of the method: as §1

NCI-H647 = test system: NCI-H647
Summary of the method: as §1

NCI-H727 = test system: NCI-H727
Summary of the method: as §1

RERF-LC-KJ = test system: RERF-LC-KJ
Summary of the method: as §1

SK-LU-1 = test system: SK-LU-1
Summary of the method: as §1

`O=c1cc(N2CCOCC2)oc2c(-c3cccc4c3sc3ccccc34)cccc12` + Cc1nc(Nc2ncc(C(=O)Nc3c(C)cccc3Cl)s2)cc(N2CCN(CCO)CC2)n1 [Dasatinib] (partner 0.075 µM) showed a relative viability (201T; first compound 0.01 µM) of 0.592, a relative viability (201T; first compound 0.03162 µM) of 0.592 and a relative viability (201T; first compound 0.1 µM) of 0.596. For the same compound, the relative viability (201T; first compound 0.3162 µM) was 0.505, the relative viability (201T; first compound 1 µM) was 0.596 and the relative viability (BEN; first compound 0.01 µM) was 0.317. It also gave a relative viability (BEN; first compound 0.03162 µM) of 0.362, a relative viability (BEN; first compound 0.1 µM) of 0.3 and a relative viability (BEN; first compound 0.3162 µM) of 0.354. For the same compound, the relative viability (BEN; first compound 1 µM) was 0.266, the relative viability (CAL-12T; first compound 0.01 µM) was 0.322 and the relative viability (CAL-12T; first compound 0.03162 µM) was 0.531. It also gave a relative viability (CAL-12T; first compound 0.1 µM) of 0.49, a relative viability (CAL-12T; first compound 0.3162 µM) of 0.317 and a relative viability (CAL-12T; first compound 1 µM) of 0.295. For the same compound, the relative viability (HCC-827; first compound 0.01 µM) was 0.338, the relative viability (HCC-827; first compound 0.03162 µM) was 0.293 and the relative viability (HCC-827; first compound 0.1 µM) was 0.323. For the same compound, the relative viability (HCC-827; first compound 0.3162 µM) was 0.283, the relative viability (HCC-827; first compound 1 µM) was 0.328 and the relative viability (LCLC-103H; first compound 0.01 µM) was 0.491. The relative viability (LCLC-103H; first compound 0.03162 µM) was 0.412, the relative viability (LCLC-103H; first compound 0.1 µM) was 0.539 and the relative viability (LCLC-103H; first compound 0.3162 µM) was 0.449. For the same compound, the relative viability (LCLC-103H; first compound 1 µM) was 0.401, the relative viability (LCLC-97TM1; first compound 0.01 µM) was 0.904 and the relative viability (LCLC-97TM1; first compound 0.03162 µM) was 0.86. The relative viability (LCLC-97TM1; first compound 0.1 µM) was 0.788, the relative viability (LCLC-97TM1; first compound 0.3162 µM) was 0.917 and the relative viability (LCLC-97TM1; first compound 1 µM) was 0.898. It also gave a relative viability (LXF-289; first compound 0.01 µM) of 0.239, a relative viability (LXF-289; first compound 0.03162 µM) of 0.223 and a relative viability (LXF-289; first compound 0.1 µM) of 0.187. It also gave a relative viability (LXF-289; first compound 0.3162 µM) of 0.213, a relative viability (LXF-289; first compound 1 µM) of 0.247 and a relative viability (NCI-H1395; first compound 0.01 µM) of 0.422. The relative viability (NCI-H1395; first compound 0.03162 µM) was 0.393, the relative viability (NCI-H1395; first compound 0.1 µM) was 0.407 and the relative viability (NCI-H1395; first compound 0.3162 µM) was 0.367. For the same compound, the relative viability (NCI-H1395; first compound 1 µM) was 0.454, the relative viability (NCI-H1437; first compound 0.01 µM) was 0.337 and the relative viability (NCI-H1437; first compound 0.03162 µM) was 0.329. It also gave a relative viability (NCI-H1437; first compound 0.1 µM) of 0.492, a relative viability (NCI-H1437; first compound 0.3162 µM) of 0.509 and a relative viability (NCI-H1437; first compound 1 µM) of 0.344. The relative viability (NCI-H1650; first compound 0.01 µM) was 0.34, the relative viability (NCI-H1650; first compound 0.03162 µM) was 0.33 and the relative viability (NCI-H1650; first compound 0.1 µM) was 0.315. For the same compound, the relative viability (NCI-H1650; first compound 0.3162 µM) was 0.287, the relative viability (NCI-H1650; first compound 1 µM) was 0.276 and the relative viability (NCI-H1792; first compound 0.01 µM) was 0.857. The relative viability (NCI-H1792; first compound 0.03162 µM) was 0.663, the relative viability (NCI-H1792; first compound 0.1 µM) was 0.856 and the relative viability (NCI-H1792; first compound 0.3162 µM) was 0.996. The relative viability (NCI-H1792; first compound 1 µM) was 0.788, the relative viability (NCI-H1793; first compound 0.01 µM) was 0.372 and the relative viability (NCI-H1793; first compound 0.1 µM) was 0.394. For the same compound, the relative viability (NCI-H1793; first compound 0.3162 µM) was 0.314, the relative viability (NCI-H1793; first compound 1 µM) was 0.405 and the relative viability (NCI-H1944; first compound 0.01 µM) was 0.218. For the same compound, the relative viability (NCI-H1944; first compound 0.03162 µM) was 0.234, the relative viability (NCI-H1944; first compound 0.1 µM) was 0.203 and the relative viability (NCI-H1944; first compound 0.3162 µM) was 0.24. The relative viability (NCI-H1944; first compound 1 µM) was 0.225, the relative viability (NCI-H2087; first compound 0.01 µM) was 0.989 and the relative viability (NCI-H2087; first compound 0.03162 µM) was 1.02. It also gave a relative viability (NCI-H2087; first compound 0.1 µM) of 0.917, a relative viability (NCI-H2087; first compound 0.3162 µM) of 0.89 and a relative viability (NCI-H2087; first compound 1 µM) of 0.887. It also gave a relative viability (NCI-H2228; first compound 0.01 µM) of 0.538, a relative viability (NCI-H2228; first compound 0.03162 µM) of 0.416 and a relative viability (NCI-H2228; first compound 0.1 µM) of 0.49. It also gave a relative viability (NCI-H2228; first compound 0.3162 µM) of 0.523, a relative viability (NCI-H2228; first compound 1 µM) of 0.543 and a relative viability (NCI-H2405; first compound 0.01 µM) of 0.188. The relative viability (NCI-H2405; first compound 0.03162 µM) was 0.224, the relative viability (NCI-H2405; first compound 0.1 µM) was 0.201 and the relative viability (NCI-H2405; first compound 0.3162 µM) was 0.238. It also gave a relative viability (NCI-H2405; first compound 1 µM) of 0.196, a relative viability (NCI-H3122; first compound 0.01 µM) of 0.667 and a relative viability (NCI-H3122; first compound 0.03162 µM) of 0.836. It also gave a relative viability (NCI-H3122; first compound 0.1 µM) of 0.753, a relative viability (NCI-H3122; first compound 0.3162 µM) of 0.764 and a relative viability (NCI-H3122; first compound 1 µM) of 0.751. The relative viability (NCI-H322M; first compound 0.01 µM) was 0.231, the relative viability (NCI-H322M; first compound 0.03162 µM) was 0.255 and the relative viability (NCI-H322M; first compound 0.1 µM) was 0.292. It also gave a relative viability (NCI-H322M; first compound 0.3162 µM) of 0.252, a relative viability (NCI-H322M; first compound 1 µM) of 0.224 and a relative viability (NCI-H647; first compound 0.01 µM) of 0.239. The relative viability (NCI-H647; first compound 0.03162 µM) was 0.18, the relative viability (NCI-H647; first compound 0.1 µM) was 0.0909 and the relative viability (NCI-H647; first compound 0.3162 µM) was 0.224. For the same compound, the relative viability (NCI-H647; first compound 1 µM) was 0.211, the relative viability (NCI-H727; first compound 0.01 µM) was 0.466 and the relative viability (NCI-H727; first compound 0.03162 µM) was 0.292. For the same compound, the relative viability (NCI-H727; first compound 0.1 µM) was 0.456, the relative viability (NCI-H727; first compound 0.3162 µM) was 0.367 and the relative viability (NCI-H727; first compound 1 µM) was 0.38. The relative viability (RERF-LC-KJ; first compound 0.01 µM) was 0.85, the relative viability (RERF-LC-KJ; first compound 0.03162 µM) was 0.918 and the relative viability (RERF-LC-KJ; first compound 0.1 µM) was 0.934. The relative viability (RERF-LC-KJ; first compound 0.3162 µM) was 0.769, the relative viability (RERF-LC-KJ; first compound 1 µM) was 0.818 and the relative viability (SK-LU-1; first compound 0.01 µM) was 0.173. It also gave a relative viability (SK-LU-1; first compound 0.03162 µM) of 0.175, a relative viability (SK-LU-1; first compound 0.1 µM) of 0.166 and a relative viability (SK-LU-1; first compound 0.3162 µM) of 0.195. It also gave a relative viability (SK-LU-1; first compound 1 µM) of 0.181.
